Test results from patent US20140296190A1, “MARKETING THE USE OF 25-HYDROXYVITAMIN D3 TO ENHANCE COGNITION” (DSM IP ASSETS B.V., priority 2013, published 2014).
Read-outs that look alike come from different tables or passages of the source.

Legend:
healthy adults under 65 = test: Example 3 placebo-controlled trial: executive function tests in the general adult population; format: in vivo, human; conditions: healthy adults under 65, 6 months
Description: The design is a parallel group, randomized, placebo-controlled, double-blind study similar to that of Example 2, above, except that the participants are healthy adults under 65. The duration of supplementation is 6 months (180 days). Group size is chosen so that a statistically significant difference, if present, may be observed between placebo and test groups. […] Double-blind randomization is carried out by means of a label code associated with a specific participant ID number, whose meaning is known only to the supplier. Participants are allocated randomly to these numbers. For baseline (Day 0) the following tests are performed: […] Baseline evaluation is followed by the randomization of the subjects. From Day 2 on, they start to take the study compounds. At visits on Day 90 and Day 180 the following tests are performed: […] Executive functioning test batteries include the following standard tests of executive functioning: Trail Making Tests A and B (to determine the ratio of TMT-B/TMT-A), Stroop Colour-Word Test, including determining the Stroop ratio, calculated by Stroop card 3/((Stroop card 1+Stroop card 2)/2) and animal fluency test. These tests are always performed at the same time of the day.

[1] = design: species or system human; conditions: in vivo
Excerpt: The design is a parallel group, randomized, placebo-controlled, double-blind study similar to that of Example 2, above, except that the participants are healthy adults under 65. The duration of supplementation is 6 months (180 days). Group size is chosen so that a statistically significant difference, if present, may be observed between placebo and test groups.
Participants are randomly allocated to either the 25-OH D3 group, Vitamin D3 group, (Vitamin D3+25 OH D3) group or placebo group. Double-blind randomization is carried out by means of a label code associated with a specific participant ID number, whose meaning is known only to the supplier. Participants are allocated randomly to these numbers.
For baseline (Day 0) the following tests are performed: Physical examination, vital signs (blood pressure, heart rate), demographics, clinical laboratory, FFQ, serum: 25-OH D3, 24,25(OH)2D, 1,25(OH)2D3, Vitamin D3, calcium, albumin, creatinine, fasting glucose, PTH; urine: calcium, creatinine; executive function tests (see below). Baseline evaluation is followed by the randomization of the subjects. From Day 2 on, they start to take the study compounds. […]

[2] = Example 2 placebo-controlled trial: serum/plasma 25-OH D3 level in frail elderly; design: species or system human; conditions: in vivo
Excerpt: The design is a parallel group, randomized, placebo-controlled, double-blind study with three different application groups. Each group has an appropriate number of participants (e.g., 20 participants). Eligibility is defined as being 65 years or older and being frail or pre-frail. Frailty is defined as having unintentional weight loss, weakness, self-reported exhaustion, slow walking speed, and/or low physical activity (see Fried L P, et al. Frailty in older adults: evidence for a phenotype. J Gerontol A Biol Sci Med. Sci. […] A participant is classified as pre-frail when one or two of the aforementioned criteria are met, while frail is classified when three or more criteria are present. […] The duration of supplementation is 6 months (180 days). […] Double-blind randomization is carried out by means of a label code associated with a specific participant ID number, whose meaning is known only to the supplier. Participants are allocated randomly to these numbers. For baseline (Day 0) the following tests are performed: […] Baseline evaluation is followed by the randomization of the subjects. From Day 2 on, they start to take the study compounds. […] For the combination administration, the same ranges of both actives are administered. At visits on Day 90 and Day 180 the following tests are performed: […]

[3] = system: frail elderly with a low Vitamin D status; test: Example 2 placebo-controlled trial: executive function tests in frail elderly; format: in vivo, human; conditions: 6 months, in comparison to Vitamin D3 and placebo
Excerpt: The design is a parallel group, randomized, placebo-controlled, double-blind study with three different application groups. Each group has an appropriate number of participants (e.g., 20 participants). Eligibility is defined as being 65 years or older and being frail or pre-frail. Frailty is defined as having unintentional weight loss, weakness, self-reported exhaustion, slow walking speed, and/or low physical activity (see Fried L P, et al. Frailty in older adults: evidence for a phenotype. J Gerontol A Biol Sci Med. Sci. March 2001; 56(3):[…]-156.) A participant is classified as pre-frail when one or two of the aforementioned criteria are met, while frail is classified when three or more criteria are present. […] The duration of supplementation is 6 months (180 days). […] Double-blind randomization is carried out by means of a label code associated with a specific participant ID number, whose meaning is known only to the supplier. Participants are allocated randomly to these numbers. For baseline (Day 0) the following tests are performed: […] […] Executive functioning test batteries include the following standard tests of executive functioning: Trail Making Tests A and B (to determine the ratio of TMT-B/TMT-A), Stroop Colour-Word Test, including determining the Stroop ratio, calculated by Stroop card 3/((Stroop card 1+Stroop card 2)/2) and animal fluency test. […]

25-OH D serum level [1]: significantly increases
25-OH D serum level [2]: significantly increases
SMILES: C=C1CC[C@H](O)C/C1=C/C=C1\CCC[C@]2(C)[C@@H]([C@H](C)CCCC(C)(C)O)CC[C@@H]12 [25(OH)D, 25-hydroxyvitamin D3]
Executive function in comparison to placebo (healthy adults under 65): Positive results
Improvement of executive functioning [3]: significantly higher effect
